Molecular target: Monoacylglycerol Lipase (MAGL) (Homo sapiens (Human), UniProt Q99685)
Experiment: MAGL inhibition potency (IC50) assay with 4NPA substrate
Assay type: biochemical
Settings: Method 6: Reaction Biology MAGL enzyme, 6 nM; read-out: MAGL Potency (Detection Method)
Description: The potency of certain compounds for inhibiting MAGL were obtained using the following assays. The monoacylglycerol lipase inhibitor screening assay kit from Cayman Chemical was used to measure the MAGL potency for the compounds in Table 6 and Table 7. Cayman's Monoacylglycerol Lipase Inhibitor Screening Assay provides a method for screening human MAGL inhibitors. MAGL hydrolyzes 4-nitrophenylacetate resulting in a yellow product, 4-nitrophenol, with an absorbance of 405-412 nm. MAGL Inhibition was measured by the following assay. Monoacylglycerol Lipase (MAGL) inhibition was measured using recombinant MAGL enzyme (aa 2-303 RBC, internal preparation) and the substrate 4-Nitrophenyl acetate (4NPA) (Sigma-Aldrich, N8130). Hydrolysis of the substrate in the presence of the enzyme was measured by absorbance at 405 nm. 10 μL of assay buffer (10 mM Tris pH 7.5, 1 mM EDTA, 0.9% DMSO) was added to a black 384-well non-binding plate with clear bottom (Greiner, 781906) for each reaction. […] DMSO control wells were included for reference. A 10.8 nM (1.8×) MAGL mix in assay buffer was prepared, with 25 μL added to each reaction well, for a final assay concentration of 6 nM. No enzyme wells received 25 μL of buffer. Plate was incubated at room temperature for 30 minutes. 35 mM solution of 4NPA in methanol was prepared daily. A 4.5×4NPA substrate solution was prepared in assay buffer and 10 μL was added to each reaction well, for a final assay concentration of 0.25 mM. Plate was spun for 1 minute at 1000 rpm before measuring absorbance using a CLARIOstar plate reader (BMG Labtech). A kinetic reading at 405 nm was done every minute for 30 minutes. Data was analyzed using the linear slope of the reaction progress curve and the average of the no-enzyme wells (background) was subtracted from the data. The background-subtracted slope data was converted to % activity using the average of wells with enzyme and DMSO vehicle. IC50s were calculated using GraphPad software (Sigmoidal dose response, variable slope equation). […] Table 8 provides potency measurements of MAGL inhibition measured using the Potency Assay of Example 22 above, with the following modifications described in Table C. [table]

Sequence of Monoacylglycerol Lipase (MAGL) (Q99685 2-303): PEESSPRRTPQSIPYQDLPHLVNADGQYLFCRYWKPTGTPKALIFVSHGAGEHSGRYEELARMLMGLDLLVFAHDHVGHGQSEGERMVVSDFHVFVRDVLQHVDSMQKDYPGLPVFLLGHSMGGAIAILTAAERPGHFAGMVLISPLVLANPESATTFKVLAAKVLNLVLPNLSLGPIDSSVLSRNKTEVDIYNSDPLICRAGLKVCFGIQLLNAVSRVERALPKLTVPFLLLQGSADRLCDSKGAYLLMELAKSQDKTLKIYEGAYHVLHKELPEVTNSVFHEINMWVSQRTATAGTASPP

Row | IC50 [nM] | Compound
1 | < 50 | Cc1ccc(F)cc1-c1cc(C)n(C2CC3(C2)CN(C(=O)c2cc(O)ccc2F)C3)n1 [Compound 446, (2-fluoro-5-hydroxyphenyl){6-[3-(5-fluoro-2-tolyl)-5-methyl-1-pyrazolyl]-2-aza-2-spiro[3.3]heptyl}methanone]
2 | 150 to 500 | Cc1ccccc1-c1nn(C2CC3(C2)CN(C(=O)c2ccc(F)cc2OC2CC2)C3)cc1C [Compound 447, (2-cyclopropoxy-4-fluorophenyl){6-[4-methyl-3-(o-tolyl)-1-pyrazolyl]-2-aza-2-spiro[3.3]heptyl}methanone]
3 | 50 to 150 | Cc1cn(C2CC3(C2)CN(C(=O)c2ccc(F)cc2OC2CC2)C3)nc1-c1ccccc1C(F)(F)F [Compound 448, (2-cyclopropoxy-4-fluorophenyl)(6-{4-methyl-3-[o-(trifluoromethyl)phenyl]-1-pyrazolyl}-2-aza-2-spiro[3.3]heptyl)methanone]
4 | 150 to 500 | Cc1ccc(F)cc1-c1nn(C2CC3(C2)CN(C(=O)c2ccc(F)cc2OC2CC2)C3)cc1C [Compound 449, (2-cyclopropoxy-4-fluorophenyl){6-[3-(5-fluoro-2-tolyl)-4-methyl-1-pyrazolyl]-2-aza-2-spiro[3.3]beptyl}methanone]
5 | 150 to 500 | Cc1ccc(F)cc1-c1cc(C)n(C2CC3(C2)CN(C(=O)c2ccc(F)cc2OC2CC2)C3)n1 [Compound 450, (2-cyclopropoxy-4-fluorophenyl){6-[3-(5-fluoro-2-tolyl)-5-methyl-1-pyrazolyl]-2-aza-2-spiro[3.3]heptyl}methanone]
6 | 1000 to 5100 | Cc1cnn(C2CC3(C2)CN(C(=O)c2ccc(F)cc2OC2CC2)C3)c1-c1ccccc1F [Compound 452, (2-cyclopropoxy-4-fluorophenyl){6-[5-(o-fluorophenyl)-4-methyl-1-pyrazolyl]-2-aza-2-spiro[3.3]beptyl}methanone]
7 | 50 to 150 | Cc1ccc(F)cc1-c1cc(C)n(C2CC3(C2)CN(C(=O)c2ccc(F)cc2OC(F)F)C3)n1 [Compound 455, (2-difluoromethoxy-4-fluorophenyl){6-[3-(5-fluoro-2-tolyl)-5-methyl-1-pyrazolyl]-2-aza-2-spiro[3.3]heptyl}methanone]

Same assay, conditions: Method 6: Reaction Biology MAGL enzyme, 6 nM; read-out: Potency (MAGL inhibition)

Row | IC50 [nM] | Compound
8 | > 10000 | O=C(c1cc(O)ccc1F)N1CC2(CC(n3cc(C4CC4)c(-c4ccccc4Cl)n3)C2)C1 [Compound 445]

Same assay, conditions: Method 11: Reaction Biology MAGL enzyme, 25 nM (name: Conc 20); read-out: MAGL Potency (Detection Method)

Row | IC50 [nM] | Compound
9 | 1000 to 5100 | Cc1ccc(F)cc1-c1cc(C)n(C2CC3(C2)CN(C(=O)c2ccc(F)cc2OC(F)(F)F)C3)n1 [Compound 454, {6-[3-(5-fluoro-2-tolyl)-5-methyl-1-pyrazolyl]-2-aza-2-spiro[3.3]heptyl}(4-fluoro-2-trifluoromethoxyphenyl)methanone]
10 | 500 to 1000 | Cc1ccc(F)cc1-c1cc(C(F)(F)F)n(C2CC3(C2)CN(C(=O)c2ccc(F)cc2OC2CC2)C3)n1 [Compound 456, (2-cyclopropoxy-4-fluorophenyl){6-[3-(5-fluoro-2-tolyl)-5-(trifluoromethyl)-1-pyrazolyl]-2-aza-2-spiro[3.3]heptyl}methanone]
11 | 1000 to 5100 | Cc1ccc(F)cc1-c1cc(C(F)(F)F)nn1C1CC2(C1)CN(C(=O)c1ccc(F)cc1OC1CC1)C2 [Compound 457, (2-cyclopropoxy-4-fluorophenyl){6-[5-(5-fluoro-2-tolyl)-3-(trifluoromethyl)-1-pyrazolyl]-2-aza-2-spiro[3.3]heptyl}methanone]
12 | 1000 to 5100 | COc1cc(F)ccc1C(=O)N1CC2(CC(n3nc(-c4cc(F)ccc4C)cc3C(F)(F)F)C2)C1 [Compound 458, (4-fluoro-2-methoxyphenyl){6-[3-(5-fluoro-2-tolyl)-5-(trifluoromethyl)-1-pyrazolyl]-2-aza-2-spiro[3.3]heptyl}methanone]
13 | 1000 to 5100 | CCOc1cc(F)ccc1C(=O)N1CC2(CC(n3nc(C)cc3-c3ccccc3C)C2)C1 [Compound 460]
14 | 500 to 1000 | CCOc1cc(F)ccc1C(=O)N1CC2(CC(n3nc(-c4ccccc4C)cc3C)C2)C1 [Compound 461, (2-ethoxy-4-fluorophenyl){6-[5-methyl-3-(o-tolyl)-1-pyrazolyl]-2-aza-2-spiro[3.3]heptyl}methanone]
15 | 1000 to 5100 | CCOc1cc(F)ccc1C(=O)N1CC2(CC(n3nc(C)cc3-c3cc(F)ccc3C)C2)C1 [Compound 462, (2-ethoxy-4-fluorophenyl){6-[5-(5-fluoro-2-tolyl)-3-methyl-1-pyrazolyl]-2-aza-2-spiro[3.3]heptyl}metbanone]
16 | 500 to 1000 | CCOc1cc(F)ccc1C(=O)N1CC2(CC(n3nc(-c4cc(F)ccc4C)cc3C)C2)C1 [Compound 463, (2-ethoxy-4-fluorophenyl){6-[3-(5-fluoro-2-tolyl)-5-methyl-1-pyrazolyl]-2-aza-2-spiro[3.3]heptyl}methanone]
17 | 500 to 1000 | Cc1cc(-c2ccccc2C)n(C2CC3(C2)CN(C(=O)c2ccc(F)cc2OCC(F)(F)F)C3)n1 [Compound 464, [4-fluoro-2-(2,2,2-trifluoroethoxy)phenyl]{6-[3-methyl-5-(o-tolyl)-1-pyrazolyl]-2-aza-2-spiro[3.3]heptyl}methanone]
18 | 150 to 500 | Cc1ccccc1-c1cc(C)n(C2CC3(C2)CN(C(=O)c2ccc(F)cc2OCC(F)(F)F)C3)n1 [Compound 465, [4-fluoro-2-(2,2,2-trifluoroethoxy)phenyl]{6-[5-methyl-3-(o-tolyl)-1-pyrazolyl]-2-aza-2-spiro[3.3]heptyl}methanone]
19 | 500 to 1000 | Cc1cc(-c2cc(F)ccc2C)n(C2CC3(C2)CN(C(=O)c2ccc(F)cc2OCC(F)(F)F)C3)n1 [Compound 466]
20 | 150 to 500 | Cc1ccc(F)cc1-c1cc(C)n(C2CC3(C2)CN(C(=O)c2ccc(F)cc2OCC(F)(F)F)C3)n1 [Compound 467, {6-[3-(5-fluoro-2-tolyl)-5-methyl-1-pyrazolyl]-2-aza-2-spiro[3.3]heptyl} [4-fluoro-2-(2,2,2-trifluoroethoxy)phenyl]methanone]

Same assay, conditions: Method 12: Reaction Biology MAGL enzyme, 15 nM; read-out: MAGL Potency (Detection Method)

Row | IC50 [nM] | Compound
21 | < 50 | Cc1ccc(F)c(-c2nn(C3CC4(C3)CN(C(=O)c3cc(O)ccc3F)C4)cc2C(F)(F)F)c1 [Compound 475, (2-fluoro-5-hydroxyphenyl){6-[3-(2-fluoro-5-tolyl)-4-(trifluoromethyl)-1-pyrazolyl]-2-aza-2-spiro[3.3]heptyl}methanone]
22 | < 50 | O=C(c1cc(O)ccc1F)N1CC2(CC(n3cc(C4CC4)c(-c4ccccc4C(F)(F)F)n3)C2)C1 [Compound 488, (6-{4-cyclopropyl-3-[o-(trifluoromethyl)phenyl]-1-pyrazolyl}-2-aza-2-spiro[3.3]heptyl)(2-fluoro-5-hydroxyphenyl)methanone]
23 | 1000 to 5100 | O=C(c1c(F)cccc1OC1CC1)N1CC2(CC(n3cc(C(F)(F)F)c(-c4ccccc4F)n3)C2)C1 [Compound 522, (2-cyclopropoxy-6-fluorophenyl){6-[3-(o-fluorophenyl)-4-(trifluoromethyl)-1-pyrazolyl]-2-aza-2-spiro[3.3]heptyl}methanone]
24 | 1000 to 5100 | O=C(c1ccc(F)cc1OC1CC1)N1CC2(CC(n3ncc(C(F)(F)F)c3-c3ccccc3F)C2)C1 [Compound 523, (2-cyclopropoxy-4-fluorophenyl) {6-[5-(o-fluorophenyl)-4-(trifluoromethyl)~1-pyrazolyl]-2-aza-2-spiro[3.3]heptyl}methanone]
25 | 150 to 500 | O=C(c1ccc(F)cc1OC1CC1)N1CC2(CC(n3cc(C(F)(F)F)c(-c4ccccc4F)n3)C2)C1 [Compound 524, (2-cyclopropoxy-4-fluorophenyl){6-[3-(o-fluorophenyl)-4-(trifluoromethyl)-1-pyrazolyl]-2-aza-2-spiro[3.3]heptyl}methanone]

Same assay, conditions: Method 12: Reaction Biology MAGL enzyme, 15 nM; read-out: Potency (MAGL inhibition)

Row | IC50 [nM] | Compound
26 | > 10000 | Cc1cn(C2CC3(C2)CN(C(=O)c2cc(O)ccc2C(F)(F)F)C3)nc1-c1ccccc1F [Compound 495]
27 | > 10000 | O=C(c1c(F)cccc1OC1CC1)N1CC2(CC(n3ncc(C(F)(F)F)c3-c3ccccc3F)C2)C1 [Compound 521]

Row | Compound | IC50 [nM]
28 | Cc1cnn(C2CC3(C2)CN(C(=O)c2cc(O)ccc2C(F)(F)F)C3)c1-c1ccccc1F [Compound 494] | > 10000

Same assay, conditions: Method 13: Reaction Biology MAGL enzyme, 12 nM; read-out: MAGL Potency (Detection Method)

Row | IC50 [nM] | Compound
29 | < 50 | Cc1cn(C2CC3(C2)CN(C(=O)c2cc(O)ccc2F)C3)nc1-c1cc(F)ccc1F [Compound 477, {6-[3-(2,5-difluorophenyl)-4-methyl-1-pyrazolyl]-2-aza-2-spiro[3.3]heptyl}(2-fluoro-5-hydroxyphenyl)methanone]
30 | 150 to 500 | O=C(c1cc(O)ccc1F)N1CC2(CC(n3nc(C(F)(F)F)cc3-c3ccccc3C(F)(F)F)C2)C1 [Compound 487, (2-fluoro-5-hydroxyphenyl)(6-{3-(trifluoromethyl)-5-[o-(trifluoromethyl)phenyl]-1-pyrazolyl}-2-aza-2-spiro[3.3]heptyl)methanone]
